Here are results for 1 molecule from US10925858B2, “S-nitrosoglutathione (GSNO) and GSNO reductase inhibitors for use in therapy” (MUSC FOUNDATION FOR RESEARCH DEVELOPMENT, priority 2017, dated 2021).

The subject of one assay is hBMVECs. In words: Assay of trans-endothelial electrical resistance (TEER) in thrombin treated hBMVECs. It is filed as cell-based, human. The following applies: thrombin 0.1 unit/ml; GSNO 100 μM or SIN-1 500 μM pretreated 2 hr. Here is the method: Cell culture: Primary human brain microvascular endothelial cells (hBMVECs) were purchased from Angio-Proteomie (Cat #: cAP-0002, Atlanta, Ga.). The cells were cultured in cell culture flasks or plates precoated with Quick Coating Solution (Angio-Proteomie; Cat #: cAP-01) and maintained in Endothelial Growth Medium (Angio-Proteomie; Cat #: cAP-02) at 37° C. under 5% CO2/95% air. When the cells were almost confluent, the medium was replaced with endothelial basal medium (Angio-Proteomie; Cat #: cAP-03) containing 0.5% fetal bovine serum (FBS; Life Technologies, Grand Island, N.Y.) about 8-12 hours before the experiment. No institutional approval was required for this study. The study was not pre-registered. For evaluation of the endothelial barrier function, hBMVECs were plated on fibronectin-coated polycarbonate filters (Transwell system, Corning, Midland, N.C.) containing Endothelial Growth Medium (Angio-Proteomie Cat #: cAP-02). The medium was renewed every other day. Five days after seeding, the medium was replaced with Endothelial Basal Medium (Angio-Proteomie Cat #: cAP-03) containing 0.5% FBS and incubated for 2 days. Following drug treatments, transendothelial electrical resistance (TEER) was measured by EVOM2 (Word Precision Instruments) as described previously (Li et al., 2006).

In another assay the test system is diabetic mice. In words: Radial arm maze in STZ induced diabetic mice. It is filed as in vivo. The protocol: Male laca mice weighing between 28-32 g were procured from the Central Animal House, Panjab University, Chandigarh. The animals were acclimatized and were fed with standard pellet diet and water ad libitum. The experimental protocols were approved by the Institutional Ethics Committee and were conducted according to Indian National Science Academy (INSA) guidelines for the use and care of experimental animals. The animals were divided into four groups: (i) Control animals received phosphate buffered saline (PBS) throughout the study; (ii) Control+GSNO animals were administered with GSNO 100 μg/kg body weight orally, dissolved in PBS after every 24 h for 8 weeks; (iii) Diabetic animals were injected with STZ at a dose of 40 mg/kg body weight intraperitoneally for 5 days dissolved in 0.1 mol/L citrate buffer, pH 4.5 and Diabetic+GSNO mice were administered GSNO 100 μg/kg body weight orally dissolved in PBS after every 24 h for 8 weeks after the induction of diabetes. Animals were assessed weekly for development of diabetic encephalopathy in terms of memory deficits. All experimental procedures were done on mice at the end of study. Radial arm maze was used to assess specific learning and memory in the radial arm maze (Veena et al., 2009). Its apparatus consisted of equally spaced arms (35×9×5 cm) radiating from an octagonal central platform, and the maze was kept 80 cm elevated from the ground. Prior to the acquisition, all the arms were baited and mice were allowed to explore the maze for 10 min and were subjected to two such acclimatization sessions on consecutive days. […] An arm choice was recorded when the animal reached the end of an arm. An arm entry was counted when all four paws entered the arm. […] After acquisition period, animals were evaluated for retention of the task. […] The data were analyzed for the number of reference memory errors (exploring an arm never baited), working memory errors (exploring a baited arm already visited), total number of errors, memory retention and % correct choice.

[1] abbreviates: diabetic mice, GSNO 100 μg/kg body weight orally daily for 8 weeks, vs diabetic group.

With `N[C@@H](CCC(=O)N[C@@H](CSN=O)C(=O)NCC(=O)O)C(=O)O` [GSNO, S-nitrosoglutathione], the “thrombin-induced loss of TEER” value in the assay with hBMVECs is on record as “inhibited”. For the same molecule, in the assay with diabetic mice (setting [1]), the “increase in the percentage of correct choices” value came to 30% and the “lowered number of errors” value was determined as 44%. The “radial arm maze parameters of GSNO-treated control mice” value in the assay on diabetic mice (non-diabetic control mice, GSNO 100 μg/kg orally for 8 weeks, vs control mice) was “not significantly different from control mice”.
